Experimental findings from patent US10800772B2 (Gilead Sciences, Inc., priority 2016, dated 2020) are described below.

The structures appear in SMILES notation. Where two headings read alike, the source gives them in different places.

Common to all, as to type: cell-based, HIV-1
The test system of one assay is HIV-IIIb (wildtype). The assay is described as follows: Antiviral assay in MT4 cells, HIV-IIIb wildtype. The note with it: read-out: WT EC50. The gist of the method:
(§1)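 HIV-IIIb at 0.004 m.o.i., 3 h pre-infection of MT4 cells at 37 °C; 2000 cells/well in RPMI 1640 + 10% FBS with 3-fold compound dilutions, 10 conc., quadruplicate. 5-day incubation, CellTiter-Glo readout. EC50 = 50% luminescence decrease.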

In the next assay the test system is HIV-IIIb IN T174I BT. The assay is described as follows: Antiviral assay in MT4 cells, HIV-IIIb IN T174I BT virus (from viral breakthrough). The conditions noted are these: Human immunodeficiency virus 1, IIIB, MT4, 120 h, read-out: T174I BT EC50, MT4 cells, HIV-IIIb IN T174I BT (viral breakthrough), 5 days, CellTiter-Glo. Summed up:
as §1

The subject of the next assay is HIV-IIIb IN T174I DE. The assay is described as follows: Antiviral assay in MT4 cells, HIV-IIIb IN T174I DE virus (from dose escalation passaging). The conditions noted are these: Human immunodeficiency virus 1, IIIB, MT4, 120 h, read-out: T174I DE EC50, MT4 cells, HIV-IIIb IN T174I DE (dose escalation), 5 days, CellTiter-Glo. The gist of the method: as §1
Where [1] appears, read: Human immunodeficiency virus 1, IIIB, MT4, 120 h.

In the case of `Cc1cc2nc(-c3ccc4c(c3)c(N3CC(N5CCOCC5)C3)nn4C)sc2c(-c2ccc(Cl)cc2)c1[C@H](OC(C)(C)C)C(=O)O` [Compound 88, (S)-2-(tert-butoxy)-2-(7-(4-chlorophenyl)-5-methyl-2-(1-methyl-3-(3-morpholinoazetidin-1-yl)-1H-indazol-5-yl)benzo[d]thiazol-6-yl)acetic acid], the half-maximal effective concentration (EC50) in the assay on HIV-IIIb (wildtype) (setting [1]) worked out at 10 nM; in the assay on HIV-IIIb IN T174I BT, 1240 nM; in the assay with HIV-IIIb IN T174I DE, 1700 nM.

Take `COC(=O)N1CC(N2CCC(c3nn(C)c4ccc(-c5nc6cc(C)c([C@H](OC(C)(C)C)C(=O)O)c(-c7ccc(Cl)cc7)c6s5)cc34)CC2)C1` [Compound 153, (S)-2-(tert-butoxy)-2-(7-(4-chloro-phenyl)-2-(3-(1-(1-(methoxycarbonyl)azetidin-3-yl)piperidin-4-yl)-1-methyl-1H-indazol-5-yl)-5-methyl-benzo[d]thiazol-6-yl)acetic acid]: the 50% effective concentration (EC50) is 11 nM in the assay with HIV-IIIb (wildtype) (setting [1]), 159 nM with HIV-IIIb IN T174I BT and 217 nM with HIV-IIIb IN T174I DE.

Consider `CCN1CCN(c2nn(C)c3ccc(-c4nc5cc(C)c([C@H](OC(C)(C)C)C(=O)O)c(-c6ccc(Cl)cc6)c5s4)cc23)CC1=O` [Compound 84, (S)-2-(tert-butoxy)-2-(7-(4-chlorophenyl)-2-(3-(4-ethyl-3-oxopiperazin-1-yl)-1-methyl-1H-indazol-5-yl)-5-methylbenzo[d]thiazol-6-yl)acetic acid], for which the half-maximal effective concentration (EC50) was 48 nM in the assay with HIV-IIIb (wildtype) (setting [1]), 1250 nM in the assay with HIV-IIIb IN T174I BT and 1870 nM with HIV-IIIb IN T174I DE.

In the case of `COC(=O)N1CC(N2CCC(c3nn(C4CC4)c4ccc(-c5nc6cc(C)c([C@H](OC(C)(C)C)C(=O)O)c(-c7ccc(Cl)cc7)c6s5)cc34)CC2)C1` [Compound 46, (S)-2-(tert-butoxy)-2-(7-(4-chlorophenyl)-2-(1-cyclopropyl-3-(1-(1-(methoxycarbonyl)azetidin-3-yl)piperidin-4-yl)-1H-indazol-5-yl)-5-methylbenzo[d]thiazol-6-yl)acetic acid], the 50% effective concentration (EC50) was 17 nM with HIV-IIIb (wildtype) (setting [1]), 352 nM in the assay on HIV-IIIb IN T174I BT and 716 nM in the assay on HIV-IIIb IN T174I DE.

For `Cc1cc2nc(-c3cnc4c(c3)c(N3CCN(C5COC5)CC3)nn4C)sc2c(-c2ccc(Cl)cc2)c1[C@H](OC(C)(C)C)C(=O)O` [Compound 112, (S)-2-(tert-butoxy)-2-(7-(4-chlorophenyl)-5-methyl-2-(1-methyl-3-(4-(oxetan-3-yl)piperazin-1-yl)-1H-pyrazolo[3,4-b]pyridin-5-yl)benzo[d]thiazol-6-yl)acetic Acid], the concentration giving a half-maximal response (EC50) in the assay with HIV-IIIb (wildtype) (setting [1]) was found to be 10 nM; in the assay on HIV-IIIb IN T174I BT, 1250 nM; in the assay with HIV-IIIb IN T174I DE, 2110 nM.

In the case of `[2H]C([2H])([2H])n1nc(C2CCN(C3COC3)CC2)c2cc(-c3nc4cc(C)c([C@H](OC(C)(C)C)C(=O)O)c(-c5ccc(Cl)cc5)c4s3)ccc21` [Compound 40, (S)-2-(tert-butoxy)-2-(7-(4-chlorophenyl)-5-methyl-2-(1-(methyl-d3)-3-(1-(oxetan-3-yl)piperidin-4-yl)-1H-indazol-5-yl)benzo[d]thiazol-6-yl)acetic acid], the figures for the half-maximal effective concentration (EC50) in the assay with HIV-IIIb (wildtype) (setting [1]), in the assay on HIV-IIIb IN T174I BT and in the assay on HIV-IIIb IN T174I DE were 10 nM, 257 nM and 518 nM, respectively.

Take `COC(=O)N1CC(N2CCC(c3c4nc(-c5nc6cc(C)c([C@H](OC(C)(C)C)C(=O)O)c(-c7ccc(Cl)cc7)c6s5)ccc4nn3C(F)F)CC2)C1` [Compound 190, (S)-2-(tert-butoxy)-2-(7-(4-chloro-phenyl)-2-(2-(difluoromethyl)-3-(1-(1-(methoxy-carbonyl)azetidin-3-yl)piperidin-4-yl)-2H-pyrazolo [4,3-b]pyridin-5-yl)-5-methylbenzo [d]thiazol-6-yl) acetic acid]: the figures for the EC50 with HIV-IIIb (wildtype) (setting [1]), in the assay with HIV-IIIb IN T174I BT and with HIV-IIIb IN T174I DE were 6 nM, 1760 nM and 2750 nM, respectively.

On to `CCn1nc(C2CCN(C3CN(C(=O)OC)C3)CC2)c2cc(-c3nc4cc(C)c([C@H](OC(C)(C)C)C(=O)O)c(-c5ccc(Cl)cc5)c4s3)ccc21` [Compound 48, (S)-2-(tert-butoxy)-2-(7-(4-chlorophenyl)-2-(1-ethyl-3-(1-(1-(methoxycarbonyl)azetidin-3-yl)piperidin-4-yl)-1H-indazol-5-yl)-5-methylbenzo[d]thiazol-6-yl)acetic acid], for which the concentration for a half-maximal effect (EC50) with HIV-IIIb (wildtype) (setting [1]) is 8 nM; in the assay on HIV-IIIb IN T174I BT, 70 nM; in the assay on HIV-IIIb IN T174I DE, 165 nM.

In the case of `Cc1cc2nc(-c3ccc4c(c3)c(C3CCN(C(=O)C5COC5)CC3)nn4C)sc2c(-c2ccc(Cl)cc2)c1[C@H](OC(C)(C)C)C(=O)O` [Compound 161, (S)-2-(tert-butoxy)-2-(7-(4-chloro-phenyl)-5-methyl-2-(1-methyl-3-(1-(oxetane-3-carbonyl)piperidin-4-yl)-1H-indazol-5-yl)benzo[d]thiazol-6-yl)acetic acid], the concentration for a half-maximal effect (EC50) worked out at 18 nM in the assay on HIV-IIIb (wildtype) (setting [1]), 316 nM in the assay on HIV-IIIb IN T174I BT and 600 nM in the assay with HIV-IIIb IN T174I DE.

Turning to `CCn1nc(C2CCN([C@@H]3CCN(C(=O)OC)C3)CC2)c2cc(-c3nc4cc(C)c([C@H](OC(C)(C)C)C(=O)O)c(-c5ccc(Cl)cc5)c4s3)ccc21` [Compound 50, (S)-2-(tert-butoxy)-2-(7-(4-chlorophenyl)-2-(1-ethyl-3-(1-((R)-1-(methoxycarbonyl)pyrrolidin-3-yl)piperidin-4-yl)-1H-indazol-5-yl)-5-methylbenzo[d]thiazol-6-yl)acetic Acid], the concentration for a half-maximal effect (EC50) was determined as 4 nM in the assay on HIV-IIIb (wildtype) (setting [1]), 74 nM with HIV-IIIb IN T174I BT and 276 nM in the assay on HIV-IIIb IN T174I DE.

Regarding `Cc1cc2nc(-c3ccc4c(c3)c(C3CCN(C(=O)C5(C)COC5)CC3)nn4C)sc2c(-c2ccc(Cl)cc2)c1[C@H](OC(C)(C)C)C(=O)O` [Compound 160, (S)-2-(tert-butoxy)-2-(7-(4-chloro-phenyl)-5-methyl-2-(1-methyl-3-(1-(3-methyloxetane-3-carbonyl)piperidin-4-yl)-1H-indazol-5-yl)benzo[d]thiazol-6-yl)acetic acid], the half-maximal effective concentration (EC50) in the assay on HIV-IIIb (wildtype) (setting [1]) turned out to be 15 nM; with HIV-IIIb IN T174I BT, 375 nM; with HIV-IIIb IN T174I DE, 756 nM.

With `COC(=O)N1CC(N2CCC(c3nn(C)c4ncc(-c5nc6cc(C)c([C@H](OC(C)(C)C)C(=O)O)c(-c7ccc(Cl)cc7)c6s5)nc34)CC2)C1` [Compound 119, (S)-2-(tert-butoxy)-2-(7-(4-chlorophenyl)-2-(3-(1-(1-(methoxycarbonyl)azetidin-3-yl)piperidin-4-yl)-1-methyl-1H-pyrazolo[3,4-b]pyrazin-5-yl)-5-methylbenzo[d]thiazol-6-yl)acetic acid], the EC50 in the assay with HIV-IIIb (wildtype) (setting [1]) was found to be 8 nM; in the assay with HIV-IIIb IN T174I BT, 310 nM; in the assay on HIV-IIIb IN T174I DE it was 332 nM.

`Cc1cc2nc(-c3ccc4c(n3)c(C3CCN(C5COC5)CC3)nn4C3CC3)sc2c(-c2ccc(Cl)cc2)c1[C@H](OC(C)(C)C)C(=O)O` [Compound 178, (S)-2-(tert-butoxy)-2-(7-(4-chloro-phenyl)-2-(1-cyclo-propyl-3-(1-(oxetan-3-yl)piperidin-4-yl)-1H-pyrazolo[4,3-b]pyridin-5-yl)-5-methylbenzo[d]thiazol-6-yl) acetic acid]: the EC50 with HIV-IIIb (wildtype) (setting [1]) stood at 4 nM; in the assay with HIV-IIIb IN T174I BT, 121 nM; in the assay on HIV-IIIb IN T174I DE it was 317 nM.

For the compound `Cc1cc2nc(-c3ccc4c(c3)c(N3C5CCC3CN(C3COC3)C5)nn4C)sc2c(-c2ccc(Cl)cc2)c1[C@H](OC(C)(C)C)C(=O)O` [Compound 13, (2S)-2-(tert-butoxy)-2-(7-(4-chlorophenyl)-5-methyl-2-(1-methyl-3-(3-(oxetan-3-yl)-3,8-diazabicyclo[3.2.1]octan-8-yl)-1H-indazol-5-yl)benzo[d]thiazol-6-yl)acetic Acid], the half-maximal effective concentration (EC50) amounted to 10 nM in the assay on HIV-IIIb (wildtype) (Human immunodeficiency virus 1, 120 h, MT4 cells, HIV-IIIb wildtype, 5 days, CellTiter-Glo); 1230 nM with HIV-IIIb IN T174I BT; 3130 nM with HIV-IIIb IN T174I DE.

Turning to `CC(=O)N1CC(N2CCC(c3c4nc(-c5nc6cc(C)c([C@H](OC(C)(C)C)C(=O)O)c(-c7ccc(Cl)cc7)c6s5)ccc4nn3C(F)F)CC2)C1` [Compound 189, (S)-2-(2-(3-(1-(1-acetylazetidin-3-yl)piperidin-4-yl)-2-(difluoromethyl)-2H-pyrazolo [4,3-b]pyridin-5-yl)-7-(4-chloro-phenyl)-5-methylbenzo[d]thiazol-6-yl)-2-(tert-butoxy) acetic acid], the EC50 turned out to be 12 nM in the assay with HIV-IIIb (wildtype) (setting [1]), 1020 nM in the assay with HIV-IIIb IN T174I BT and 1400 nM in the assay on HIV-IIIb IN T174I DE.

For `Cc1cc2nc(-c3ccc4c(c3)c(N3CC5CCC(C3)O5)nn4C)sc2c(-c2ccc(Cl)cc2)c1[C@H](OC(C)(C)C)C(=O)O` [Compound 141, (2S)-2-(2-(3-(8-oxa-3-azabicyclo [3.2.1]octan-3-yl)-1-methyl-1H-indazol-5-yl)-7-(4-chlorophenyl)-5-methylbenzo [d]thiazol-6-yl)-2-(tert-butoxy) acetic acid], the 50% effective concentration (EC50) turned out to be 24 nM in the assay with HIV-IIIb (wildtype) (setting [1]), 3560 nM in the assay on HIV-IIIb IN T174I BT and 3930 nM in the assay on HIV-IIIb IN T174I DE.

Consider `CCN1CCC(c2nn(C)c3ccc(-c4nc5cc(C)c([C@H](OC(C)(C)C)C(=O)O)c(-c6ccc(Cl)cc6)c5s4)cc23)C1` (stereo partly drawn) [Compound 64, (2S)-2-(tert-butoxy)-2-(7-(4-chlorophenyl)-2-(3-(1-ethylpyrrolidin-3-yl)-1-methyl-1H-indazol-5-yl)-5-methylbenzo[d]thiazol-6-yl)acetic acid], for which the EC50 is 11 nM in the assay on HIV-IIIb (wildtype) (setting [1]), 2840 nM with HIV-IIIb IN T174I BT and 2620 nM in the assay with HIV-IIIb IN T174I DE.

Regarding `Cc1cc2nc(-c3ccc4c(c3)c(N3CCOCC3)nn4C)sc2c(-c2ccc(Cl)cc2)c1[C@H](OC(C)(C)C)C(=O)O` [Compound 144, (S)-2-(tert-butoxy)-2-(7-(4-chloro-phenyl)-5-methyl-2-(1-methyl-3-morpholino-1H-indazol-5-yl)benzo[d]thiazol-6-yl)acetic acid], the EC50 in the assay on HIV-IIIb (wildtype) (setting [1]) is 10 nM; in the assay on HIV-IIIb IN T174I BT it was 1810 nM; with HIV-IIIb IN T174I DE it was 3270 nM.
